Results published in PMC5218480 (PLoS ONE, 2017).

System: MV-4-11 cells
Assay: Gene expression microarray analysis (Affymetrix PrimeView) and GSEA
Format: cell-based, human
Set-up: RFU PODN (11730768_x_at) / Fold change /veh PODN (11730768_x_at) / RFU LINC00158 (11744669_a_at) / Fold change /veh LINC00158 (11744669_a_at) / RFU DUSP10 (11751237_a_at) / Fold change /veh DUSP10 (11751237_a_at) / RFU ID3 (11757404_x_at) / Fold change /veh ID3 (11757404_x_at) / RFU PLEKHG5 (11737974_s_at) / Fold change /veh PLEKHG5 (11737974_s_at) / RFU LRRC4B (11730491_at) / Fold change /veh LRRC4B (11730491_at) / RFU GIMAP4 (11747438_a_at) / Fold change /veh GIMAP4 (11747438_a_at) / RFU KRT8 (11758183_x_at) / Fold change /veh KRT8 (11758183_x_at) / RFU CNN1 (11734310_a_at) / Fold change /veh CNN1 (11734310_a_at) / RFU VPS37D (11726825_at) / Fold change /veh VPS37D (11726825_at) / RFU C10orf10 (11716522_x_at) / Fold change /veh C10orf10 (11716522_x_at) / RFU KIR2DL2 /// KIR2DL4 /// KIR2DL5A /// KIR2DL5B /// KIR2DS1 /// KIR2DS2 /// KIR2DS3 /// KIR2DS4 /// KIR3DL3 /// KIR3DL3 /// KIR3DS1 (11738374_at) / Fold change /veh KIR2DL2 /// KIR2DL4 /// KIR2DL5A /// KIR2DL5B /// KIR2DS1 /// KIR2DS2 /// KIR2DS3 /// KIR2DS4 /// KIR3DL3 /// KIR3DL3 /// KIR3DS1 (11738374_at) / RFU C1QL1 (11718748_at) / Fold change /veh C1QL1 (11718748_at) / RFU TMPRSS4 (11747572_a_at) / Fold change /veh TMPRSS4 (11747572_a_at) / RFU HAMP (11756126_x_at) / Fold change /veh HAMP (11756126_x_at) / RFU RNFT2 (11725882_a_at) / Fold change /veh RNFT2 (11725882_a_at) / RFU NR4A2 (11747474_a_at) / Fold change /veh NR4A2 (11747474_a_at) / RFU ABCC12 (11746883_a_at) / Fold change /veh ABCC12 (11746883_a_at) / RFU TMEM136 (11760407_x_at) / Fold change /veh TMEM136 (11760407_x_at) / RFU CLDN22 /// WWC2 (11732394_at) / Fold change /veh CLDN22 /// WWC2 (11732394_at) / RFU HLA-DPB1 (11760878_x_at) / Fold change /veh HLA-DPB1 (11760878_x_at) / RFU SPINT1 (11716480_a_at) / Fold change /veh SPINT1 (11716480_a_at) / RFU GAP43 (11754022_s_at) / Fold change /veh GAP43 (11754022_s_at) / RFU A4GNT (11735810_at) / Fold change /veh A4GNT (11735810_at) / RFU PRB3 (11715151_x_at) / Fold change /veh PRB3 (11715151_x_at) / RFU TUBB4B (11761932_at) / Fold change /veh TUBB4B (11761932_at) / RFU CAPN14 (11732068_a_at) / Fold change /veh CAPN14 (11732068_a_at) / RFU TMCC2 (11721928_a_at) / Fold change /veh TMCC2 (11721928_a_at) / RFU IRGQ (11745062_a_at) / Fold change /veh IRGQ (11745062_a_at) / RFU FAM174B (11720279_a_at) / Fold change /veh FAM174B (11720279_a_at) / RFU TMPRSS4 (11748680_a_at) / Fold change /veh TMPRSS4 (11748680_a_at) / RFU FAM212B (11763350_a_at) / Fold change /veh FAM212B (11763350_a_at) / RFU PLEKHG5 (11743358_a_at) / Fold change /veh PLEKHG5 (11743358_a_at) / RFU ZSCAN30 (11745921_a_at) / Fold change /veh ZSCAN30 (11745921_a_at) / RFU CMKLR1 (11741424_a_at) / Fold change /veh CMKLR1 (11741424_a_at) / RFU LOC101060620 /// MAPK8IP1 (11723275_at) / Fold change /veh LOC101060620 /// MAPK8IP1 (11723275_at) / RFU SPTSSB (11747773_x_at) / Fold change /veh SPTSSB (11747773_x_at) / RFU PRSS12 (11739890_at) / Fold change /veh PRSS12 (11739890_at) / RFU BIN1 (11741810_x_at) / Fold change /veh BIN1 (11741810_x_at) / RFU WNT11 (11732464_a_at) / Fold change /veh WNT11 (11732464_a_at) / RFU C10orf10 (11716521_a_at) / Fold change /veh C10orf10 (11716521_a_at) / RFU C5orf56 (11738089_at) / Fold change /veh C5orf56 (11738089_at) / RFU CYB561 (11721691_x_at) / Fold change /veh CYB561 (11721691_x_at) / RFU ANKRD19P (11752326_a_at) / Fold change /veh ANKRD19P (11752326_a_at) / RFU OR2T12 /// OR2T33 /// OR2T8 (11738714_s_at) / Fold change /veh OR2T12 /// OR2T33 /// OR2T8 (11738714_s_at) / RFU VCAN (11748164_a_at) / Fold change /veh VCAN (11748164_a_at) / RFU JSRP1 (11732532_at) / Fold change /veh JSRP1 (11732532_at) / RFU KRTAP10-11 (11738290_x_at) / Fold change /veh KRTAP10-11 (11738290_x_at) / RFU MYO3A (11730013_a_at) / Fold change /veh MYO3A (11730013_a_at) / RFU EBF3 (11725865_a_at) / Fold change /veh EBF3 (11725865_a_at) / RFU CAMK2N1 (11719241_x_at) / Fold change /veh CAMK2N1 (11719241_x_at) / RFU C5orf56 (11738088_a_at) / Fold change /veh C5orf56 (11738088_a_at) / RFU OLFML3 (11715873_a_at) / Fold change /veh OLFML3 (11715873_a_at) / RFU LOC100653217 /// NTM (11731650_a_at) / Fold change /veh LOC100653217 /// NTM (11731650_a_at) / RFU MAPK11 (11762145_a_at) / Fold change /veh MAPK11 (11762145_a_at) / RFU FIZ1 (11724087_x_at) / Fold change /veh FIZ1 (11724087_x_at) / RFU OASL (11726364_x_at) / Fold change /veh OASL (11726364_x_at) / RFU SOX15 (11748057_x_at) / Fold change /veh SOX15 (11748057_x_at) / RFU CD79A (11719716_a_at) / Fold change /veh CD79A (11719716_a_at) / RFU HIST1H1D (11736915_at) / Fold change /veh HIST1H1D (11736915_at) / RFU CASKIN2 (11723855_a_at) / Fold change /veh CASKIN2 (11723855_a_at) / RFU LOC730098 (11760151_x_at) / Fold change /veh LOC730098 (11760151_x_at) / RFU OR4N2 (11742367_at) / Fold change /veh OR4N2 (11742367_at) / RFU PRRT2 (11749266_a_at) / Fold change /veh PRRT2 (11749266_a_at) / RFU SNX32 (11753110_a_at) / Fold change /veh SNX32 (11753110_a_at) / RFU CDHR5 (11726645_a_at) / Fold change /veh CDHR5 (11726645_a_at) / RFU RCAN1 (11760418_a_at) / Fold change /veh RCAN1 (11760418_a_at) / RFU FAM167A (11723789_a_at) / Fold change /veh FAM167A (11723789_a_at) / RFU FAM26E (11764081_at) / Fold change /veh FAM26E (11764081_at) / RFU ISYNA1 (11749810_s_at) / Fold change /veh ISYNA1 (11749810_s_at) / RFU ACY1 (11761880_at) / Fold change /veh ACY1 (11761880_at) / RFU 11764098_at / Fold change /veh 11764098_at / RFU SAMD14 (11745864_x_at) / Fold change /veh SAMD14 (11745864_x_at) / RFU NPB (11741838_a_at) / Fold change /veh NPB (11741838_a_at) / RFU TMPRSS6 (11731388_a_at) / Fold change /veh TMPRSS6 (11731388_a_at) / RFU KRTAP10-2 (11738614_at) / Fold change /veh KRTAP10-2 (11738614_at) / RFU ARHGAP8 /// PRR5-ARHGAP8 (11727945_x_at) / Fold change /veh ARHGAP8 /// PRR5-ARHGAP8 (11727945_x_at) / RFU KRTAP5-7 /// NADSYN1 (11734609_at) / Fold change /veh KRTAP5-7 /// NADSYN1 (11734609_at) / RFU RASL12 (11751679_a_at) / Fold change /veh RASL12 (11751679_a_at) / RFU CDKN2B (11736163_a_at) / Fold change /veh CDKN2B (11736163_a_at) / RFU PRF1 (11729649_at) / Fold change /veh PRF1 (11729649_at) / RFU, ZNF638 /// ZNF638-IT1 / Fold change vs veh, ZNF638 /// ZNF638-IT1 / RFU, PANK3 / Fold change vs veh, PANK3 / RFU, SH3YL1 / Fold change vs veh, SH3YL1 / RFU, ZEB2 / Fold change vs veh, ZEB2 / RFU, NRIP1 / Fold change vs veh, NRIP1 / RFU, PTTG1IP / Fold change vs veh, PTTG1IP / RFU, CAPN2 / Fold change vs veh, CAPN2 / RFU, MED14 / Fold change vs veh, MED14 / RFU, SNORA58 / Fold change vs veh, SNORA58 / RFU, C1orf63 / Fold change vs veh, C1orf63 / RFU, LRRFIP1 / Fold change vs veh, LRRFIP1 / RFU, NDUFAF7 / Fold change vs veh, NDUFAF7 / RFU, SLC12A2 / Fold change vs veh, SLC12A2 / RFU, IBTK / Fold change vs veh, IBTK / RFU, ESF1 / Fold change vs veh, ESF1 / Fold change vs veh, TMEM50B / RFU, TAOK1 / Fold change vs veh, TAOK1 / RFU, ACBD3 / Fold change vs veh, ACBD3 / RFU, TMA16 / Fold change vs veh, TMA16 / RFU, RWDD3 / Fold change vs veh, RWDD3 / RFU, BCAT1 / Fold change vs veh, BCAT1 / RFU, EDEM3 / Fold change vs veh, EDEM3 / RFU, TMEM33 / Fold change vs veh, TMEM33 / RFU, WDR75 / Fold change vs veh, WDR75 / RFU, AHCTF1 / Fold change vs veh, AHCTF1 / RFU, TFRC / Fold change vs veh, TFRC / RFU, ZDHHC17 / Fold change vs veh, ZDHHC17 / RFU, NOM1 / Fold change vs veh, NOM1 / RFU, ARL8B / Fold change vs veh, ARL8B / RFU, ZBTB11 / Fold change vs veh, ZBTB11 / RFU, TAMM41 / Fold change vs veh, TAMM41 / RFU, KIAA1704 /// LOC100996395 / Fold change vs veh, KIAA1704 /// LOC100996395 / RFU, ING1 / Fold change vs veh, ING1 / RFU, TRMT61B / Fold change vs veh, TRMT61B / RFU, FUBP3 / Fold change vs veh, FUBP3 / RFU, TP53 / Fold change vs veh, TP53 / RFU, TNKS2 / Fold change vs veh, TNKS2 / RFU, ZFP14 / Fold change vs veh, ZFP14 / RFU, ACTR2 / Fold change vs veh, ACTR2 / RFU, PPP3R1 / Fold change vs veh, PPP3R1 / RFU, PIK3R1 / Fold change vs veh, PIK3R1 / RFU, HNRNPA1 / Fold change vs veh, HNRNPA1 / RFU, RNF170 / Fold change vs veh, RNF170 / RFU, ZNF28 / Fold change vs veh, ZNF28 / RFU, RNGTT / Fold change vs veh, RNGTT / RFU, OGT / Fold change vs veh, OGT / RFU, BRD1 / Fold change vs veh, BRD1 / RFU, MARS / Fold change vs veh, MARS / RFU, ZNF655 / Fold change vs veh, ZNF655 / RFU, FAHD1 / Fold change vs veh, FAHD1 / RFU, BDP1 / Fold change vs veh, BDP1 / RFU, LRRCC1 / Fold change vs veh, LRRCC1 / RFU, ARID1A / Fold change vs veh, ARID1A / RFU, ZNF146 / Fold change vs veh, ZNF146 / RFU, ZNF330 / Fold change vs veh, ZNF330 / RFU, GPN3 / Fold change vs veh, GPN3 / RFU, C9orf123 / Fold change vs veh, C9orf123 / RFU, N4BP2L2 / Fold change vs veh, N4BP2L2 / RFU, ARFIP1 / Fold change vs veh, ARFIP1 / RFU, FAM179B / Fold change vs veh, FAM179B / RFU, BCL10 / Fold change vs veh, BCL10 / RFU, UHRF1BP1L / Fold change vs veh, UHRF1BP1L / RFU, BET1 / Fold change vs veh, BET1 / RFU, CNOT2 / Fold change vs veh, CNOT2 / RFU, ZNF268 / Fold change vs veh, ZNF268 / Fold change vs veh, ZNF507 / RFU, DGCR2 / Fold change vs veh, DGCR2 / RFU, WDSUB1 / Fold change vs veh, WDSUB1 / Fold change vs veh, HSP90B1 /// MIR3652 / RFU, ADSS / Fold change vs veh, ADSS / RFU, GK / Fold change vs veh, GK / RFU, ZNF148 / Fold change vs veh, ZNF148 / RFU, TAF9 / Fold change vs veh, TAF9 / RFU, SLC1A5 / Fold change vs veh, SLC1A5 / RFU, SLMO2 / Fold change vs veh, SLMO2 / RFU, ABCC4 / Fold change vs veh, ABCC4 / RFU, LOC101060439 /// RAP1B / Fold change vs veh, LOC101060439 /// RAP1B / RFU, RFX7 / Fold change vs veh, RFX7 / RFU, GTPBP10 / Fold change vs veh, GTPBP10 / RFU, CNEP1R1 / Fold change vs veh, CNEP1R1 / RFU, BIVM-ERCC5 /// ERCC5 / Fold change vs veh, BIVM-ERCC5 /// ERCC5 / RFU, ILF3 / Fold change vs veh, ILF3 / RFU 11762660_at / Fold change /veh 11762660_at / RFU VCAN (11757783_s_at) / Fold change /veh VCAN (11757783_s_at) / RFU DDX43 (11728927_at) / Fold change /veh DDX43 (11728927_at) / RFU KRT8 (11758188_x_at) / Fold change /veh KRT8 (11758188_x_at) / RFU NKD1 (11759106_at) / Fold change /veh NKD1 (11759106_at) / RFU SRD5A1 (11742802_a_at) / Fold change /veh SRD5A1 (11742802_a_at) / RFU TPSAB1 /// TPSB2 (11721975_s_at) / Fold change /veh TPSAB1 /// TPSB2 (11721975_s_at) / RFU GSTM3 (11746129_a_at) / Fold change /veh GSTM3 (11746129_a_at) / RFU IL23R (11737362_x_at) / Fold change /veh IL23R (11737362_x_at) / RFU TMEM51 (11727254_a_at) / Fold change /veh TMEM51 (11727254_a_at) / RFU PIWIL2 (11732686_x_at) / Fold change /veh PIWIL2 (11732686_x_at) / RFU ORM1 (11744905_x_at) / Fold change /veh ORM1 (11744905_x_at) / RFU CCDC152 (11743942_at) / Fold change /veh CCDC152 (11743942_at) / RFU ECM1 (11717891_a_at) / Fold change /veh ECM1 (11717891_a_at) / RFU IL23R (11748794_a_at) / Fold change /veh IL23R (11748794_a_at) / RFU TNFAIP8L3 (11732012_x_at) / Fold change /veh TNFAIP8L3 (11732012_x_at) / RFU MBOAT4 (11741988_at) / Fold change /veh MBOAT4 (11741988_at) / RFU 11764193_at / Fold change /veh 11764193_at / RFU TMEM53 (11763286_at) / Fold change /veh TMEM53 (11763286_at) / RFU MAGEB2 (11727129_at) / Fold change /veh MAGEB2 (11727129_at) / RFU TMEM200A (11744735_a_at) / Fold change /veh TMEM200A (11744735_a_at) / RFU CCDC152 (11751479_a_at) / Fold change /veh CCDC152 (11751479_a_at) / RFU FAM211A (11726209_a_at) / Fold change /veh FAM211A (11726209_a_at) / RFU RGS16 (11746705_a_at) / Fold change /veh RGS16 (11746705_a_at) / RFU VCAN (11755009_s_at) / Fold change /veh VCAN (11755009_s_at) / RFU RHOB (11743442_s_at) / Fold change /veh RHOB (11743442_s_at) / RFU RGS16 (11720943_a_at) / Fold change /veh RGS16 (11720943_a_at) / RFU RGS16 (11720944_at) / Fold change /veh RGS16 (11720944_at) / RFU, VPS4B / Fold change vs veh, VPS4B / RFU, CREB1 / Fold change vs veh, CREB1 / RFU, DNAJC13 / Fold change vs veh, DNAJC13 / RFU, GNAQ / Fold change vs veh, GNAQ / RFU, CDK5R1 / Fold change vs veh, CDK5R1 / RFU, ZRANB3 / Fold change vs veh, ZRANB3 / RFU, CUL4A / Fold change vs veh, CUL4A / RFU, CCNY / Fold change vs veh, CCNY / RFU, UFL1 / Fold change vs veh, UFL1 / RFU, COG3 / Fold change vs veh, COG3 / RFU, DIAPH2 / Fold change vs veh, DIAPH2 / RFU, SKA2 / Fold change vs veh, SKA2 / RFU, AFF3 / Fold change vs veh, AFF3 / RFU, LMF1 / Fold change vs veh, LMF1 / RFU, IPO11 / Fold change vs veh, IPO11 / RFU, DFFB / Fold change vs veh, DFFB / RFU, FOXP1 / Fold change vs veh, FOXP1 / RFU, CARD8 / Fold change vs veh, CARD8 / RFU, STRN3 / Fold change vs veh, STRN3 / RFU, ADK / Fold change vs veh, ADK / RFU, RASSF2 / Fold change vs veh, RASSF2 / RFU, WIPF1 / Fold change vs veh, WIPF1 / RFU, LARP1B / Fold change vs veh, LARP1B / RFU, RASA1 / Fold change vs veh, RASA1 / RFU, RB1 / Fold change vs veh, RB1 / RFU, PPFIA1 / Fold change vs veh, PPFIA1 / RFU, MAT2A / Fold change vs veh, MAT2A / RFU, CCT5 / Fold change vs veh, CCT5 / RFU, WDR92 / Fold change vs veh, WDR92 / RFU, CUX1 / Fold change vs veh, CUX1 / RFU, TTC7A / Fold change vs veh, TTC7A / RFU, TMEM135 / Fold change vs veh, TMEM135 / RFU, DEPTOR / Fold change vs veh, DEPTOR / RFU, CPM / Fold change vs veh, CPM / RFU, DNAJB6 / Fold change vs veh, DNAJB6 / RFU, CACNA2D3 / Fold change vs veh, CACNA2D3 / RFU, DTX4 / Fold change vs veh, DTX4 / RFU, TFCP2 / Fold change vs veh, TFCP2 / RFU, GMCL1 /// GMCL1P1 / Fold change vs veh, GMCL1 /// GMCL1P1 / RFU, AEBP2 / Fold change vs veh, AEBP2 / RFU, SNHG1 /// SNORD22 /// SNORD25 /// SNORD26 /// SNORD27 /// SNORD28 /// SNORD29 /// SNORD31 / Fold change vs veh, SNHG1 /// SNORD22 /// SNORD25 /// SNORD26 /// SNORD27 /// SNORD28 /// SNORD29 /// SNORD31 / Fold change (Aza/veh), C12orf56 (ProbeSet 11735607_a_at) / Fold change (ACY-1035/veh), C12orf56 (ProbeSet 11735607_a_at) / Fold change (Aza/veh), FGFR1OP (ProbeSet 11751329_s_at) / Fold change (ACY-1035/veh), FGFR1OP (ProbeSet 11751329_s_at) / Fold change (Aza/veh), VPS36 (ProbeSet 11739960_a_at) / Fold change (ACY-1035/veh), VPS36 (ProbeSet 11739960_a_at) / RFU SYPL1 (11715823_x_at) / Fold change /veh SYPL1 (11715823_x_at) / RFU IGFBP7 (11715501_s_at) / Fold change /veh IGFBP7 (11715501_s_at) / RFU REEP3 (11722064_at) / Fold change /veh REEP3 (11722064_at) / RFU IGLL1 (11728026_x_at) / Fold change /veh IGLL1 (11728026_x_at): dose or concentration left out as unconfirmed
Conditions: MV-4-11 cells, 48 hours

For Nc1ccc(-c2cccs2)cc1NC(=O)c1ccc2c(c1)cc(C1CC1)n2CCN1CCOCC1 [ACY-1035], the “RFU OLFML3 (11715873_a_at)” value was 13.14 RFU.
